# Legend:
# [1] = test system: TNBS-induced colitis; experiment: Intestinal permeability, FITC-labeled-dextran method, TNBS-colitis model; type: in vivo; conditions: TNBS-colitis mice; 60 mg/kg i.p.; FITC-dextran gavage after 20 hours, serum four hours later; compared to vehicle control
# Text: (§1) The effectiveness of compounds and methods of the present invention on intestinal barrier protection and treatment of inflammatory bowel disease (IBD) in TNBS (2,4,6-trinitrobenzene sulfonic acid)-induced colitis, an established animal model of inflammatory bowel disease, was examined. TNBS-induced colitis was induced in mice using a modification of techniques previously described. (See Morris et al (1989) Gastroenterology 96:795-803; Boirivant et al (1998) J Exp Med 188:1929-1939; Karhausen et al (2004) J Clin Invest 114:1098-1106.) Mice were shaved on the abdomen (causing total depletion of hair and microlesions) and were then sensitized to subsequent treatment by epicutaneous application of 1% TNBS (Sigma-Aldrich) in 100% ethanol on day minus 7. Seven days later, on day 0, animals were sedated with a 2.5% Tribromoethanol solution in phosphate-buffered saline (14 μl/g body weight), followed by intrarectal administration of a 2.5% TNBS solution in 50% ethanol (5 μl/g body weight). Administration of the 2.5% TNBS solution was carried out using an epidural catheter ([…] Plus Epidural Catheter, Arrow International), which was inserted approximately 6 cm ab ano followed by release of the TNBS solution. […] Four hours later, changes in intestinal permeability were determined by measurement of serum FITC-dextran levels.
# [2] = test system: TNBS-induced colitis; experiment: Colon length shortening in TNBS-colitis model; type: in vivo; conditions: TNBS-colitis mice, vehicle-treated greater than 17%
# Text: as §1, with “Colon length was” for “Four hours later, changes in intestinal permeability were”, “the distance from the most distal aspect of the cecum to the most terminal aspect of the rectum on day 3 post-induction of TNBS-colitis.” for “serum FITC-dextran levels.”
structure (smiles),measurement,setting,value
"O=C(O)CNC(=O)c1ncc2cc(Sc3ccccc3)ccc2c1O [Compound A, [(4-Hydroxy-7-phenylsulfanyl-isoquinoline-3-carbonyl)-amino]-acetic acid]",serum FITC-dextran levels (intestinal permeability),[1],lower levels of serum FITC-dextran
same,average decrease in colon length at day 3,"[2]; 20 mg/kg i.p. on day minus 1, day 0, day 1",approximately 12%
same,average decrease in colon length at day 3,"[2]; 40 mg/kg i.p. on day minus 1, day 0, day 1",~8%
